“Also recorded” adds a separate entry of the source.

One data set has as its system mouse cornea. The experiment in a line: Corneal toxicity after topical application (H&E staining). Conditions: 2 mM once daily for 6 days. Format: in vivo. Here is the method:
their cytotoxic activities were analyzed in four independent experiments by trypan blue staining. The calculated IC50 values are presented in the normal cell cytotoxicity column in Table 1. B) Topical toxicity of TRAP1 inhibitors. A 3D culture of human corneal epithelium (MCTT HCE) was incubated with 2 mM TRAP1 inhibitors and analyzed by H&E staining.
The culture thickness (n = 5) was measured and analyzed (Table S1). Scale bar, 25 μm. C) Corneal toxicity. After topical application of 2 mM MitoQ, SB-U014, or SB-U015 once daily for 6 days, the mouse cornea was harvested and analyzed by H&E staining. Treatment with […]
Supplementary Table 1. Percentage viability and thickness of the 3D culture of MCTT […]
Drug Percentage viability (%) Thickness (μm)
A 3D culture of human corneal epithelium (MCTT HCE) was incubated with 2 mM TRAP1 inhibitors, and the percentage viability was analyzed by the WST-1 assay (n = 4). Absorbance was measured with a microplate reader. Thickness was calculated from H&E staining images (n = 5) as in Figure S18B, Supporting information. Data Information: The data are […]

Another data set concerns MIO‐M1 cells. Put plainly: Cytoplasmic calcium (Fluo‐4 AM) in MIO‐M1 cells. Format: cell-based, human. Conditions: Fluo‐4 AM‐labeled MIO‐M1 cells under hypoxia; MitoQ 6 h, thapsigargin 30 min. As for the experimental part:
Figure 5 TRAP1 inhibition induces mPTP opening, mitochondrial calcium discharge, and calpain‐1 activation. A) Visualization of cytoplasmic calcium. Fluo‐4 AM‐labeled MIO‐M1 cells were incubated with the TRAP1 inhibitors gamitrinib and MitoQ^[ [32], [41] ^] for 6 h or thapsigargin for 30 min under hypoxia, and analyzed by confocal microscopy. Scale bars, 10 µm and 2 µm (inset). […] MIO‐M1 cells were treated with a TRAP1 inhibitor, 3 µM gamitrinib or 0.5 µM MitoQ, for 6 h under hypoxia (n = 4). Enzyme activity was measured using a fluorogenic calpain substrate as described in the Experimental Section. C) Restored HIF1α expression upon CypD inhibition. MIO‐M1 cells were incubated with control or CypD‐targeting siRNAs, treated with the TRAP1 inhibitor MitoQ for 6 h under hypoxia, harvested, and analyzed by western blotting. Black and red arrows indicate pro and autolyzed forms of calpain‐1, respectively. […] MIO‐M1 cells were incubated with TRAP1‐targeting siRNAs for 48 h, exposed to hypoxia for 6 h, harvested, and analyzed by qPCR (n = 4). […] Cells were then analyzed by flow cytometry to detect cytoplasmic calcium. […] MIO‐M1 cells were incubated with TRAP1 inhibitors, 3 µM gamitrinib, and 0.5 µM MitoQ, and a cell‐permeable calcium chelator, BAPTA (10 µM), for 6 h as indicated under hypoxia and analyzed by western blotting. […] Data information: Data are expressed as mean ± SEM. […]

For another data set, the system named is Trap1 KO MIO-M1 cells. Put plainly: TRAP1 inhibitor effects in Trap1 KO MIO‐M1 cells. Format: cell-based, human. Here is the method: MIO‐M1 Trap1 KO cell lines were generated using CRISPR/Cas9‐derived RNA‐guided endonucleases (Toolgen; Seoul, Republic of Korea). MIO‐M1 cells were co‐transfected with the Cas9 vector and TRAP1‐sgRNA expression vector (sgRNA sequence 1; 5′‐[…]‐3′ and sequence 2; 5′‐[…]‐3′) using jetPRIME transfection reagent (Polyplus; Illkirch‐Graffenstaden, France). Transfected cells were selected in culture medium containing […] puromycin (Sigma). Single‐cell colonies were collected using a cloning cylinder (I.D. × H 6.4 mm × 8 mm; Sigma) and analyzed using T7 endonuclease I to confirm Trap1 KO.
Supplementary Figure 16. Calpain-1 autolysis and HIF1α degradation in Trap1 […]
A) HIF1α degradation and calpain-1 autolysis in Trap1 knockout (KO) MIO-M1 cells. Trap1 KO MIO-M1 cells were generated as described in the Experimental Section and incubated in hypoxia for 6 hr, followed by analysis using western blotting. Under hypoxia, HIF1α degradation and autoproteolysis of calpain-1 were found in Trap1 KO MIO-M1 cells, when compared with wild type (WT) cells. […]
cell lines were established using MIO-M1 cells. WT and KO cells were incubated with MitoQ for 6 hr under hypoxia and analyzed by western blotting. Trap1 KO reduced the expression of […]
Quantification of the HIF1α protein level. HIF1α western blot density was analyzed and compared. Data are expressed as mean ± SEM from four independent experiments.
C) Cytoplasmic calcium concentration. WT and Trap1-KO MIO-M1 cells were labeled with […]
Fluo-4 AM, incubated with 3 μM gamitrinib or 1 μM MitoQ for 6 hr under hypoxia, collected, and analyzed by flow cytometry. Data information: Data are expressed as mean ± SEM.
Student t-test, ***P < 0.001; ns, not significant. […]

On to `COC1=C(OC)C(=O)C(CCCCCCCCCC[P+](c2ccccc2)(c2ccccc2)c2ccccc2)=C(C)C1=O` [MitoQ, mitoquinone], for which, in the data set with mouse cornea, the “histologic abnormality of cornea after topical application” value is on record as “did not cause any noticeable abnormality”. Moreover, the cytoplasmic calcium result in the data set with MIO‐M1 cells is recorded as “Modestly elevated”. In the data set on Trap1 KO MIO-M1 cells (3 μM gamitrinib or 1 μM MitoQ, 6 hr under hypoxia, Fluo-4 AM flow cytometry), the “cytosolic calcium concentration in Trap1−/− cells” value was “did not affect”. Also, the “HIF1α expression in Trap1−/− cells” value in the data set with Trap1 KO MIO-M1 cells (6 hr under hypoxia, western blotting) is on record as “not further affected; also recorded: did not affect”. Further, in the data set on Trap1 KO MIO-M1 cells (hypoxia), the “calpain‐1 activation in Trap1−/− cells” value is reported as “did not affect”.

Source of the values: publication PMC10787068, “Targeting the Mitochondrial Chaperone TRAP1 Alleviates Vascular Pathologies in Ischemic Retinopathy” (Advanced Science, 2023).
